Activity calls are given as the source filed them. The rule behind the calls is not given here.
Tested on: CCRIS mutagenicity, Ames/micronucleus/aberration tests
Assay: CCRIS mutagenicity studies
[1] = Test System: AMES SALMONELLA TYPHIMURIUM, Strain/Indicator: TA98, Metabolic Activation: NONE, Method: PREINCUBATION
[2] = Test System: AMES SALMONELLA TYPHIMURIUM, Strain/Indicator: TA98, Metabolic Activation: RAT, LIVER, S-9, AROCLOR 1254, Method: STANDARD PLATE
[3] = Test System: AMES SALMONELLA TYPHIMURIUM, Strain/Indicator: TA100, Metabolic Activation: NONE, Method: STANDARD PLATE
[4] = Test System: AMES SALMONELLA TYPHIMURIUM, Strain/Indicator: TA1535, Metabolic Activation: RAT, LIVER, S-9, AROCLOR 1254, Method: STANDARD PLATE

[Cl][Cr]([Cl])[Cl] was tested, and the mutagenic call (End Point: IN VITRO MICRONUCLEUS, Test System: CHL/IU CELLS, Metabolic Activation: NONE) was “active; positive”, the mutagenic call (Test System: AMES SALMONELLA TYPHIMURIUM, Strain/Indicator: TA94, Metabolic Activation: NONE, Method: STANDARD PLATE) was “active; positive” and the mutagenic call (Test System: AMES SALMONELLA TYPHIMURIUM, Strain/Indicator: TA98, Metabolic Activation: HAMSTER, LIVER, S-9, AROCLOR 1254, Method: STANDARD PLATE) was “inactive; negative”. For the same molecule, the mutagenic call [1] was “inactive; negative”, the mutagenic call [2] was “inactive; negative” and the mutagenic call (Test System: AMES SALMONELLA TYPHIMURIUM, Strain/Indicator: TA98, Metabolic Activation: RAT, LIVER, S-9, PHENOBARBITAL AND BETA-NAPHTHOFLAVONE, Method: PREINCUBATION) was “inactive; negative”. For the same molecule, the mutagenic call (Test System: AMES SALMONELLA TYPHIMURIUM, Strain/Indicator: TA100, Metabolic Activation: HAMSTER, LIVER, S-9, AROCLOR 1254, Method: STANDARD PLATE) was “inactive; negative”, the mutagenic call (Test System: AMES SALMONELLA TYPHIMURIUM, Strain/Indicator: TA100, Metabolic Activation: NONE, Method: PREINCUBATION) was “inactive; negative” and the mutagenic call [3] was “inactive; negative”. For the same molecule, the mutagenic call (Test System: AMES SALMONELLA TYPHIMURIUM, Strain/Indicator: TA100, Metabolic Activation: RAT, LIVER, S-9, AROCLOR 1254, Method: STANDARD PLATE) was “inactive; negative”, the mutagenic call (Test System: AMES SALMONELLA TYPHIMURIUM, Strain/Indicator: TA100, Metabolic Activation: RAT, LIVER, S-9, PHENOBARBITAL AND BETA-NAPHTHOFLAVONE, Method: PREINCUBATION) was “inactive; negative” and the mutagenic call (Test System: AMES SALMONELLA TYPHIMURIUM, Strain/Indicator: TA102, Metabolic Activation: HAMSTER, LIVER, S-9, AROCLOR 1254, Method: STANDARD PLATE) was “active; positive”. The mutagenic call (Test System: AMES SALMONELLA TYPHIMURIUM, Strain/Indicator: TA102, Metabolic Activation: RAT, LIVER, S-9, AROCLOR 1254, Method: STANDARD PLATE) was “active; positive”, the mutagenic call (Test System: AMES SALMONELLA TYPHIMURIUM, Strain/Indicator: TA1535, Metabolic Activation: HAMSTER, LIVER, S-9, AROCLOR 1254, Method: STANDARD PLATE) was “inactive; negative” and the mutagenic call (Test System: AMES SALMONELLA TYPHIMURIUM, Strain/Indicator: TA1535, Metabolic Activation: NONE, Method: PREINCUBATION) was “inactive; negative”. For the same molecule, the mutagenic call (Test System: AMES SALMONELLA TYPHIMURIUM, Strain/Indicator: TA1535, Metabolic Activation: NONE, Method: STANDARD PLATE) was “inactive; negative”, the mutagenic call [4] was “inactive; negative” and the mutagenic call (Test System: AMES SALMONELLA TYPHIMURIUM, Strain/Indicator: TA1535, Metabolic Activation: RAT, LIVER, S-9, PHENOBARBITAL AND BETA-NAPHTHOFLAVONE, Method: PREINCUBATION) was “inactive; negative”. For the same molecule, the mutagenic call (Test System: AMES SALMONELLA TYPHIMURIUM, Strain/Indicator: TA1537, Metabolic Activation: HAMSTER, LIVER, S-9, AROCLOR 1254, Method: STANDARD PLATE) was “inactive; negative”, the mutagenic call (Test System: AMES SALMONELLA TYPHIMURIUM, Strain/Indicator: TA1537, Metabolic Activation: NONE, Method: PREINCUBATION) was “inactive; negative” and the mutagenic call (Test System: AMES SALMONELLA TYPHIMURIUM, Strain/Indicator: TA1537, Metabolic Activation: NONE, Method: STANDARD PLATE) was “inactive; negative”. The mutagenic call (Test System: AMES SALMONELLA TYPHIMURIUM, Strain/Indicator: TA1537, Metabolic Activation: RAT, LIVER, S-9, AROCLOR 1254, Method: STANDARD PLATE) was “inactive; negative”, the mutagenic call (Test System: AMES SALMONELLA TYPHIMURIUM, Strain/Indicator: TA1537, Metabolic Activation: RAT, LIVER, S-9, PHENOBARBITAL AND BETA-NAPHTHOFLAVONE, Method: PREINCUBATION) was “inactive; negative” and the mutagenic call (Test System: AMES SALMONELLA TYPHIMURIUM, Strain/Indicator: TA1538, Metabolic Activation: NONE, Method: PREINCUBATION) was “inactive; negative”. For the same molecule, the mutagenic call (Test System: AMES SALMONELLA TYPHIMURIUM, Strain/Indicator: TA1538, Metabolic Activation: RAT, LIVER, S-9, PHENOBARBITAL AND BETA-NAPHTHOFLAVONE, Method: PREINCUBATION) was “inactive; negative”, the mutagenic call (Test System: CHINESE HAMSTER OVARY CELLS, Strain/Indicator: CHO CELLS (HPRT)/6-THIOGUANINE, Metabolic Activation: NONE, Method: STANDARD PLATE) was “active; positive” and the mutagenic call (Test System: E. COLI, Strain/Indicator: WP2 UVRA, Metabolic Activation: NONE, Method: SPOT TEST) was “inactive; negative”. The mutagenic call (Test System: E. COLI, Strain/Indicator: WP2UVRA, Metabolic Activation: RAT LIVER S-9, PHENOBARBITAL AND BETA-NAPHTHOFLAVONE, Method: PREINCUBATION) was “inactive; negative”, the mutagenic call (Test System: E.COLI, Strain/Indicator: WP2UVRA, Metabolic Activation: NONE, Method: PREINCUBATION) was “inactive; negative” and the mutagenic call (Test System: Mouse lymphoma, Strain/Indicator: L5178Y (tk+/tk-), Metabolic Activation: None, Method: Suspension/plate) was “inactive; negative”. The mutagenic call (Test System: Mouse lymphoma, Strain/Indicator: L5178Y (tk+/tk-), Metabolic Activation: Rat, Liver, S-9, Aroclor 1254, Method: Suspension/plate) was “active; equivocal (previous evaluation positive)”.

For O=C(CBr)Nc1ccccc1, the mutagenic call (Test System: AMES SALMONELLA TYPHIMURIUM, Strain/Indicator: TA100, Metabolic Activation: MOUSE, LIVER, S-9, AROCLOR 1254, Method: STANDARD PLATE) was “inactive; negative” and the mutagenic call [3] was “inactive; negative”.

With Cc1cccc2cc([N+](=O)[O-])ccc12 the mutagenic call [1] was “active; positive”.

With c1ccc2c(c1)cc1ccc3c4ccccc4cc4ccc2c1c43 the mutagenic call (Test System: HUMAN H1A1V2 CELLS, Strain/Indicator: TK LOCUS, Metabolic Activation: NONE, Method: SUSPENSION/PLATE) was “active; positive”.

With COc1ccnc(=O)[nH]1 the mutagenic call [3] was “active; positive”.

With Oc1ccc(-c2ccccc2)cc1 the mutagenic call [2] was “active; positive” and the mutagenic call [4] was “inactive; negative”.

In the case of CCc1ccc(C)cc1, the mutagenic call (Test System: AMES SALMONELLA TYPHIMURIUM, Strain/Indicator: TA97A, Metabolic Activation: NONE, Method: STANDARD PLATE) is reported as “inactive; negative”, the mutagenic call (Test System: AMES SALMONELLA TYPHIMURIUM, Strain/Indicator: TA97A, Metabolic Activation: RAT LIVER S-9, AROCLOR 1254, Method: STANDARD PLATE) is reported as “inactive; negative” and the mutagenic call (Test System: AMES SALMONELLA TYPHIMURIUM, Strain/Indicator: TA98, Metabolic Activation: NONE, Method: STANDARD PLATE) is reported as “inactive; negative”. For the same molecule, the mutagenic call (Test System: AMES SALMONELLA TYPHIMURIUM, Strain/Indicator: TA98, Metabolic Activation: RAT LIVER S-9, AROCLOR 1254, Method: STANDARD PLATE) was “inactive; negative”, the mutagenic call [3] was “inactive; negative” and the mutagenic call (Test System: AMES SALMONELLA TYPHIMURIUM, Strain/Indicator: TA100, Metabolic Activation: RAT LIVER S-9, AROCLOR 1254, Method: STANDARD PLATE) was “inactive; negative”. For the same molecule, the mutagenic call (Test System: AMES SALMONELLA TYPHIMURIUM, Strain/Indicator: TA102, Metabolic Activation: NONE, Method: STANDARD PLATE) was “inactive; negative” and the mutagenic call (Test System: AMES SALMONELLA TYPHIMURIUM, Strain/Indicator: TA102, Metabolic Activation: RAT LIVER S-9, AROCLOR 1254, Method: STANDARD PLATE) was “inactive; negative”.

With COc1ccc(CNC(=O)C(C)Br)cc1OC (configuration not stated) the mutagenic call [3] was “active; positive”.

— PubChem BioAssay AID1259407 (Chemical Carcinogenesis Research Information System (CCRIS), 2018)
